# Patent US20240150372A1 (priority 2021, published 2024)
# Like-named read-outs stand apart in the source and are kept apart here.
# Columns and labels:
# C57BL/6J mice = assay: Mouse tail-flick test; assay type: in vivo; details: s.c., cumulative doses 1-30 mg/kg, 30 min post injection
# Procedure: C57BL/6J (8-12 weeks, 22-31 g) were purchased from the Jackson Laboratory (Bar Harbor, ME) and housed 5 mice per cage with food and water available ad libitum. Mice were maintained on a 12-hr light/dark cycle (lights on 7:00-19:00) and all testing was done in the light cycle. Temperature was kept constant at 22±2° C., and relative humidity was maintained at 50±5%. Mice were moved to the testing room 30 minutes before the experiment to allow for acclimation. The body weight of each mouse and base tail-flick value were recorded. Mice were administered a 1 mg/kg s.c. dose of compound solution (volume of injection 220-310 μL based on body weight). After injection mice were returned to the home cage and allowed to rest for 30 minutes. Thirty minutes post injection the tail-flick measurement was taken using thermal stimulation via IR on a Ugo Basile unit set to 52 PSU (ten seconds was used as a maximum latency to prevent tissue damage). Mice were then administered 3 mg/kg s.c. dose, allowed to rest for 30 minutes, followed by another tail-flick measurement. […] Tail-flick latencies for the different doses were expressed as percentage of maximum potential effect (% MPE) by subtracting the experimental value by the base tail flick value then dividing by the difference between the maximum possible latency (10 seconds) and the base tail-flick value and finally multiplying by 100. […]
# hSERT = hSERT (Homo sapiens (Human), UniProt P31645); assay: hSERT fluorometric transporter inhibition assay (APP+ uptake, hSERT-HEK); assay type: cell-based
# Procedure: (§1) Inhibition assays of transporters (hSERT and rVMAT2) were performed according to the following protocol.
# (§2) Cell culture preparation and maintenance. Stably transfected hSERT-HEK and rVMAT2-HEK cellular cultures were maintained in Dulbecco's Minimal Essential Medium (DMEM) with GlutaMAX (Gibco) with the following additions: 10% (v/v) Fetal Bovine Serum (FBS, Atlanta Biologicals), 100 U/mL Penicillin (Gibco), and 10 μg/mL Streptomycin (Gibco). With regards to the former cell lineage, an additional ingredient, 500 μg/mL Geneticin (G418) (Gibco) was included to preserve the respective transgene.
# (§3) hSERT and rVMAT2 fluorometric screening assays. For both hSERT and rVMAT2 screening experiments, respective singly transfected cells were seeded at a density of 0.09×10^6 cells/well in poly-D-Lysine (Alamanda Polymers, Inc.) coated white solid-bottom 96-well plates (Costar). Growth was permitted for approximately 44 hours in said aqueous media and at an incubation environment of 37° C. and 5% Carbon Dioxide. At the beginning of the experiment, the cellular growth solution was aspirated, and individual cells were rinsed with 150 μL of 1×Dulbecco's Phosphate Buffered Saline (PBS; HyClone). 63 μL of Experimental Media (consisting of the following contents: DMEM without phenol red but with 4.5 g/L of D-Glucose (Gibco), 1% (v/v) FBS (Atlanta Biologicals), 100 U/mL Penicillin (Gibco), and 10 μg/mL Streptomycin (Gibco)) with 2×tiered concentrations of inhibitor (or DMSO, the vehicle of these experiments) were added to the respective wells. […] A final solution of 120 μL of PBS is finally added to all corresponding wells for cell maintenance before undergoing fluorescence uptake reading by a BioTek H1MF plate reader. […]
# (§4) Data analysis. […] Respective inhibitor values were first subtracted from vehicular values to quantify the respective fluorescence uptake. This metric was then analyzed using the dose-response-inhibitor nonlinear curve fitting model ([inhibitor] vs response (three parameters)) as supplied by GraphPad Prism 8 software. […]
# rVMAT2 = rVMAT2 (Rattus norvegicus (Rat), UniProt Q01827); assay: rVMAT2 fluorometric transporter inhibition assay (FFN206 uptake, rVMAT2-HEK); assay type: cell-based
# Procedure: as §1, §2, §3, §4
# rKOR = rKOR (Rattus norvegicus (Rat), UniProt P34975); assay: rKOR agonist assay (cAMP), rKOR-CHO; assay type: cell-based
# Procedure: EC50 values and % efficacy of control agonist (KOR: U-50,488) maximal response at 1 μM for rKOR-CHO were obtained by screening the selected compounds via commercially available assay services.
# [1] = system: adult human primary ventricular myocytes; assay: Pro-arrhythmia assay in adult human primary ventricular cardiomyocytes (contractility); assay type: cell-based; details: 0.1-10 μM, 1 Hz pacing
# Procedure: Cardiac adverse effects of iboga alkaloids and related analogs was assessed via a commercially available assay, procedure reported in (Nguyen, N. et al. 2017; Page, G. et al. 2016) (FIG. 1).
# Isolation of adult human primary ventricular myocytes. Adult human primary ventricular myocytes were isolated from ethically consented donor hearts. A proprietary protocol was employed to enzymatically digest hearts and isolate cardiomyocytes.
# Contractility recordings procedures. Cardiomyocytes were placed in a perfusion chamber mounted on the stage of inverted Motic AE31E (IonOptix) or Olympus IX83P1ZF microscopes (MyoBlazer) and continuously perfused at approximately 2 ml/min with recording buffer heated to 35±1° C. using an in-line heater from Warner Instruments (IonOptix & MyoBlazer) and allowed to equilibrate for 5 minutes under constant perfusion. The cells were field stimulated with supra-threshold voltage at a 1 Hz pacing frequency, with a bipolar pulse of 3 ms duration, using a pair of platinum wires placed on opposite sides of the chamber connected to a MyoPacer stimulator. […] The IonWizard software or MyoBLAZER Analysis software analyzed the periodicity in the optical density of these bands by means of a fast Fourier transform algorithm.
# Pro-arrhythmia markers. […] STV (STV=Σ|CAn+1−CAn|(20×√2)^−1) was calculated with the last 20 transients of each control and test article concentration period. […]
# [2] = target: human ethera-go-go-related gene (hERG) potassium channels (Homo sapiens (Human), UniProt Q12809); details: Alper, K. et al 2016; cited from earlier work
# human cardiomyocytes = details: Rubi, L. et al 2017; cited from earlier work
# male F344 rats [3] = assay: Morphine self-administration, repeated dosing regimen; assay type: in vivo, rat
# male F344 rats [4] = assay: Morphine intravenous self-administration, single administration; assay type: in vivo, rat; details: 40 mg/kg IP
compound,measurement,setting,value
CCC1CC2C[C@H]3c4oc5ccc(O)cc5c4CCN2C13 (stereo partly drawn) [(16R)-Oxa-noribogaine],"ED50, analgesia in tail-flick test",C57BL/6J mice,2.8 mg/kg
same,IC50,"hSERT; ± SEM, read-out: hSERT (IC50)",450 ± 70 nM
same,IC50,"rVMAT2; ± SEM, read-out: rVMAT2 (IC50)",140 ± 30 nM
same,"% efficacy of control agonist (KOR: U-50,488) maximal response at 1 μM",rKOR; cAMP,(96%)
same,EC50,"rKOR; cAMP, read-out: rKOR (EC50)",< 10 nM
CCC1CC2C[C@@H]3c4oc5ccc(O)cc5c4CCN2C13 (stereo partly drawn) [(16S)-Oxa-noribogaine],"ED50, analgesia in tail-flick test",C57BL/6J mice,> 30 mg/kg
same,IC50,"hSERT; ± SEM, read-out: hSERT (IC50)",2900 ± 680 nM
same,IC50,"rVMAT2; ± SEM, read-out: rVMAT2 (IC50)",2800 ± 550 nM
same,"% efficacy of control agonist (KOR: U-50,488) maximal response at 1 μM",rKOR; cAMP,(25%)
same,EC50,"rKOR; cAMP, read-out: rKOR (EC50)",~300 nM
CC[C@H]1C[C@H]2C[C@H]3c4[nH]c5ccc(O)cc5c4CCN(C2)C13 [noribogaine],pro-arrhythmia effects,[1],exhibits pro-arrhytmia effects
same,hERG block IC50,[2],low micromolar
same,action potential repolarization,human cardiomyocytes,significantly delayed action potential repolarization
CCC1CC2CC3c4oc5ccc(O)cc5c4CCN(C2)C13 (centres unmarked) [oxa-noribogaine],pro-arrhythmia effects,[1],no pro-arrhytmia effects even at high concentrations
same,morphine intake in the following three sessions,male F344 rats [3]; after first 10 mg/kg,approximately 40 % of baseline levels
same,morphine intake recovered after administration,male F344 rats [3]; after first 40 mg/kg,approximately 60 % of VEH levels
same,morphine intake at the end of the dosing regimen,male F344 rats [3]; after last 5 mg/kg,approximately 8 % of baseline levels
same,morphine intake in the following session,male F344 rats [3]; after second 10 mg/kg,approximately 25 % of baseline levels
same,morphine intake recovered over following three days,male F344 rats [3]; after second 40 mg/kg,approximately 50%
same,morphine intake eighteen days following the last administration,male F344 rats [3]; eighteen days after last 5 mg/kg,40%
same,morphine intake in the session following administration,male F344 rats [3]; first 10 mg/kg,approximately 4 infusions
same,IC50,hSERT,900 ± 120 nM
same,IC50,rVMAT2,670 ± 110 nM
same,EC50,rKOR,< 10 nM
same,Emax,"rKOR; cAMP, read-out: % efficacy of control agonist (KOR: U-50,488) maximal response at 1 μM",102%
epi-oxa-noribogaine,"morphine intake, duration of reduction",male F344 rats [4],significantly decreased morphine self-administration for three sessions
